Laboratory results from patent US5981551A, “2,5-diimino-3a,6a-diaryl-1,2,3,3a,4,5,6,6a-octahydroim idazo[4,5-d]imidazoles which are effective as G-CSF mimetics” (SmithKline Beecham Corporation, priority 1998, dated 1999).
Where a name gives a salt, the structure may show the parent alone. One block for each molecule: values may come before it.

Molecular target: T1, G-CSF receptor (Mus musculus, UniProt P40223)
T1 construct: NSF60 cells express endogenous G-CSF receptors; endogenous in cells; host or cells: NFS60 cells
T1 sequence (P40223 26-837): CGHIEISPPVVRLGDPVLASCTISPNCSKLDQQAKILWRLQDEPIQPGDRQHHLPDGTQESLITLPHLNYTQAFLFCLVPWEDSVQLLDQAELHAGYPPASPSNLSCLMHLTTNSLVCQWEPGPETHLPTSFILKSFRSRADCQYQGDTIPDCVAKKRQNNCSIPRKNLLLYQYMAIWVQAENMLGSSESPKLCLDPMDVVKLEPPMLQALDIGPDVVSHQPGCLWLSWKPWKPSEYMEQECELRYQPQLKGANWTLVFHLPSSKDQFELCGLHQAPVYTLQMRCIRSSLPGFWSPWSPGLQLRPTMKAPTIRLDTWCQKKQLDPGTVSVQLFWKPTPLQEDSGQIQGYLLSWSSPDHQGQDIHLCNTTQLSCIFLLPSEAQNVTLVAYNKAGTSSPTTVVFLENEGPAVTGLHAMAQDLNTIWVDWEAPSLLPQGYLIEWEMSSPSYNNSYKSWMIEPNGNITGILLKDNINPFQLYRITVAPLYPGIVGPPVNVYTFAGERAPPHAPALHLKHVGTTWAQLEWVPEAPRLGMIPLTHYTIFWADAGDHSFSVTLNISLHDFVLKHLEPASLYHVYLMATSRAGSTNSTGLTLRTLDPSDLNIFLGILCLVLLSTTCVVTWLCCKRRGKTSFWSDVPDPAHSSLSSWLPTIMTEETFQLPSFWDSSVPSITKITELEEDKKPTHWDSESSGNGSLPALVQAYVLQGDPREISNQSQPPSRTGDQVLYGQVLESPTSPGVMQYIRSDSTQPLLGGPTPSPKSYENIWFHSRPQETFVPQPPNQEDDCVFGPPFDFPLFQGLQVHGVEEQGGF
Assay: Luciferase assay in NFS60 cells (G-CSF mimetic potency)
Format: cell-based
Settings: concentration range of 1 to 32 uM
Text: Luciferase Assay […] Natl. Acad. Sci., USA 92: 3041-3045 (1995) by substituting NFS60 cells for the HepG2 cells utilized therein. The NFS60 cells (Holmes, et al., Proc. Natl. Acad. Sci. USA 82: 6687-6691 (1985)) were substituted for the HepG2 cells in the Lamb assay because the NSF60 cells express endogenous G-CSF receptors closely matching the pattern of STAT (signal transducers and activators of transcription) activation observed in primary murine and human bone marrow cells.

activation, % of control, in the luciferase assay: above 150 % of control
SMILES: c1ccc(C23NC(=Nc4nc5ccccc5[nH]4)NC2(c2ccccn2)NC(=Nc2nc4ccccc4[nH]2)N3)nc1 (stereo not drawn) [Example 1]

activation, % of control, in the luciferase assay: above 150 % of control
SMILES: c1ccc(C23NC(=Nc4nc5ccccc5[nH]4)NC2(c2ccccc2)NC(=Nc2nc4ccccc4[nH]2)N3)cc1 (stereo not drawn) [Example 2]

activation, % of control, in the luciferase assay: ≤ 150 % of control
SMILES: c1ccc(C23NC(=Nc4nc5ccccc5o4)NC2(c2ccccn2)NC(=Nc2nc4ccccc4o2)N3)nc1 (stereo not drawn) [Example 14, 2,5-bis[2-benzoxazolylimino]-3a,6a-bis(2-pyridyl)-1,2,3a,4,5,6,6a-octahydroimidazo[4,5-d]imidazole]

activation, % of control, in the luciferase assay: above 150 % of control
SMILES: Cc1cc2nc(N=C3NC4(c5ccccn5)NC(=Nc5nc6ccccc6[nH]5)NC4(c4ccccn4)N3)[nH]c2cc1C (stereo not drawn) [Example 26, 5-[2-benzimidazolylimino]-2-[(5,6-dimethyl-2-benzimidazolyl)imino]-3a,6a-bis(2-pyridyl)-1,2,2a,4,5,6,6a-octahydroimidazo[4,5-d]imidazole bis(trifluoroacetate) salt]

activation, % of control, in the luciferase assay: above 150 % of control
SMILES: c1ccc(C23NC(=Nc4nc5ccccc5[nH]4)NC2(c2ccccn2)NC(=Nc2nc4ccccc4s2)N3)nc1 (stereo not drawn) [Example 30, 5-[2-benzimidazolylimino]-2-[2-benzothiazolylimino]-3a,6a-bis(2-pyridyl)-1,2,3a,4,5,6,6a-octahydroimidazo[4,5-d]imidazole bis(trifluoroacetate)]

activation, % of control, in the luciferase assay: ≤ 150 % of control
SMILES: Brc1ccc(C23NC(=Nc4nc5ccccc5[nH]4)NC2(c2ccc(Br)cc2)NC(=Nc2nc4ccccc4[nH]2)N3)cc1 (stereo not drawn) [Example 33, 2,5-bis[2-benzimidazolylimino]-3a,6a-bis(4-bromophenyl)-1,2,3,3a,4,5,6,6a-octahydroimidazo[4,5-d]imidazole]

activation, % of control, in the luciferase assay: above 150 % of control
SMILES: FC(F)(F)c1ccc(C23NC(=Nc4nc5ccccc5[nH]4)NC2(c2ccc(C(F)(F)F)cc2)NC(=Nc2nc4ccccc4[nH]2)N3)cc1 (stereo not drawn) [Example 34, 2,5-bis[2-benzimidazolylimino]-3a,6a-bis(4-trifluoromethylphenyl)-1,2,3,3a,4,5,6,6a-octahydroimidazo[4,5-d]imidazole]

activation, % of control, in the luciferase assay: above 150 % of control
SMILES: Clc1cccc(C23NC(=Nc4nc5ccccc5[nH]4)NC2(c2ccccc2)NC(=Nc2nc4ccccc4[nH]2)N3)c1 (stereo not drawn) [Example 35, 2,5-bis[2-benzimidazolylimino]-3a-(3-chlorophenyl)-6a-phenyl-1,2,3,3a,4,5,6,6a-octahydroimidazo[4,5-d]imidazole]

activation, % of control, in the luciferase assay: ≤ 150 % of control
SMILES: Clc1ccccc1C12NC(=Nc3nc4ccccc4[nH]3)NC1(c1ccccc1)NC(=Nc1nc3ccccc3[nH]1)N2 (stereo not drawn) [Example 36, 2,5-bis[2-benzimidazolylimino]-3a-(2-chlorophenyl)-6a-phenyl-1,2,3,3a,4,5,6,6a-octahydroimidazo[4,5-d]imidazole]

activation, % of control, in the luciferase assay: ≤ 150 % of control
SMILES: Cn1c(N=C2NC3(c4ccccc4)NC(=Nc4nc5ccccc5n4C)NC3(c3ccccc3)N2)nc2ccccc21 (stereo not drawn) [Example 38, 2,5-bis[(1-methyl-2-benzimidazolyl)imino]-3a,6a-diphenyl-1,2,3,3a,4,5,6,6a-octahydromidazo[4,5-d]imidazole]

activation, % of control, in the luciferase assay: above 150 % of control
SMILES: Cc1ccc(C23NC(=Nc4nc5ccccc5n4C)NC2(c2ccc(C)cc2)NC(=Nc2nc4ccccc4n2C)N3)cc1 (stereo not drawn) [Example 39, 2,5-bis[(1-methyl-2-benzimidazolyl)imino]-3a,6a-bis(4-methylphenyl)-1,2,3,3a,4,5,6,6a-octahydromidazo[4,5-d]imidazole]

activation, % of control, in the luciferase assay: ≤ 150 % of control
SMILES: Cn1c(N=C2NC3(c4ccc(Br)cc4)NC(=Nc4nc5ccccc5n4C)NC3(c3ccc(Br)cc3)N2)nc2ccccc21 (stereo not drawn) [Example 40, 2,5-bis[(1-methyl-2-benzimidazolyl)imino]-3a,6a-bis(4-bromophenyl)-1,2,3,3a,4,5,6,6a-octahydromidazo[4,5-d]imidazole]

The remaining lines, values behind:

SMILES: c1coc(C23NC(=Nc4nc5ccccc5[nH]4)NC2(c2ccco2)NC(=Nc2nc4ccccc4[nH]2)N3)c1 (stereo not drawn) [Example 3, 2,5-bis[2-benzimidazolylimino]-3a,6a-bis(2-furyl)-1,2,3,3a,4,5,6,6a-bis(2-pyridyl)octahydroimidazo[4.5-d]imidazole]
activation, % of control, in the luciferase assay: ≤ 150 % of control

SMILES: Cc1csc(N=C2NC3(c4ccccn4)NC(=Nc4nc(C)cs4)NC3(c3ccccn3)N2)n1 (stereo not drawn) [Example 13, 2,5-bis[(4-methyl-2-thiazolyl)imino]-3a,6a-bis(2-pyridyl)-1,2,3,3a,4,5,6a-octahydroimidazo[4,5-d]imidazole]
activation, % of control, in the luciferase assay: above 150 % of control

SMILES: Fc1ccc2nc(N=C3NC4(c5ccccn5)NC(=Nc5nc6ccccc6[nH]5)NC4(c4ccccn4)N3)[nH]c2c1.O=C(O)C(F)(F)F.O=C(O)C(F)(F)F (stereo not drawn) [Example 19, 5-(2-benzimidazolylimino)-2-[(5-fluoro-2-benzimidazolyl)imino]-3a,6a-bis(2-pyridyl)-1,2,3,3a,4,5,6,6a-octahydroimidazo[4,5-d]imidazole bis(trifluoroacetate) salt]
activation, % of control, in the luciferase assay: ≤ 150 % of control

SMILES: Fc1ccc2nc(N=C3NC4(c5ccccn5)NC(=Nc5nc6ccc(F)cc6[nH]5)NC4(c4ccccn4)N3)[nH]c2c1 (stereo not drawn) [Example 20, 2,5-bis[(5-fluoro-2-benzimidazolyl)imino]-3a,6a-bis(2-pyridyl-1,2,3,3a4,5,6,6a-octahydroimidazo[4,5-d]imidazolebis(trifluoroacetate) salt]
activation, % of control, in the luciferase assay: above 150 % of control

SMILES: Cc1cc2nc(N=C3NC4(c5ccccn5)NC(=Nc5nc6cc(C)c(C)cc6[nH]5)NC4(c4ccccn4)N3)[nH]c2cc1C (stereo not drawn) [Example 25, 2,5-bis[(5.6-dimethyl-2-benzimidazolyl)imino]-3a,6a-bis(2-pyridyl)-1,2,2a,4,5,6,6a-octahydroimidazo[4,5-d]imidazole bis(trifluoroacetate) salt]
activation, % of control, in the luciferase assay: above 150 % of control

SMILES: O=C(O)c1ccc2nc(N=C3NC4(c5ccccn5)NC(=Nc5nc6ccccc6[nH]5)NC4(c4ccccn4)N3)[nH]c2c1 (stereo not drawn) [Example 31, 5-[(2-benzimidazolylimino]1-2-[(5-carboxy-2-benzimidazolyl)imino]-3a,6a-bis(2-pyridyl)-1,2,3,3a,4,5,6,6a-octahydroimidazo[4,5-d]imidazolebis(trifluoroacetate) salt]
activation, % of control, in the luciferase assay: ≤ 150 % of control

SMILES: Ic1ccc2nc(N=C3NC4(c5ccccn5)NC(=Nc5nc6ccc(I)cc6[nH]5)NC4(c4ccccn4)N3)[nH]c2c1.O=C(O)C(F)(F)F.O=C(O)C(F)(F)F (stereo not drawn) [Example 32a, 2,5-bis[(5-iodo-2-benzimidazolyl)imino]-3a,6a-bis(2-pyridyl)-1,2,3,3a,4,5,6,6a-octahydroimidazo[4,5-d]imidazole bis(trifluoroacetate) salt]
activation, % of control, in the luciferase assay: ≤ 150 % of control

SMILES: Ic1ccc2nc(N=C3NC4(c5ccccn5)NC(=Nc5nc6ccccc6[nH]5)NC4(c4ccccn4)N3)[nH]c2c1 (stereo not drawn) [Example 32b, 5-[2-benzimidazolylimino]-2-[(5-iodo-2-benzimidazolyl)imino]-3a,6a-bis(2-pyridyl)-1,2,2a,4,5,6,6a-octahydroimidazo[4,5-d]imidazole bis(trifluoroacetate) salt]
activation, % of control, in the luciferase assay: above 150 % of control

SMILES: Cc1ccc2nc(N=C3NC4(c5ccccc5)NC(=Nc5nc6ccccc6[nH]5)NC4(c4ccccn4)N3)[nH]c2c1.O=C(O)C(F)(F)F.O=C(O)C(F)(F)F (stereo not drawn) [Example 37, 5-(2-benzimidazolylimino)-2-[(5-methyl-2-benzimidazolyl)imino]-3a-(2-pyridyl)-6a-phenyl-1,2,3,3a,4,5,6,6a-octahydroimidazo[4,5-d]imidazole bis(trifluoroacetate) salt]
activation, % of control, in the luciferase assay: above 150 % of control
